For the series the following is noted: 303.15 K; 101.1 kPa; Crystal; flotation method.

Numbers after ± are expanded uncertainties.

This passage reports mass density results from the NIST ThermoML archive (doi:10.1016/j.jct.2016.07.023).

As to `Cc1cc(C(=O)O)ccc1[N+](=O)[O-]` [3-methyl-4-nitrobenzoic acid], the mass density stood at 1528.6 ± 2.7 kg/m3.
